Reference: US20190275022A1, “METHODS, COMPOSITIONS, AND COMPOUNDS FOR TREATMENT OF DERMATOLOGICAL AND OCULAR CONDITIONS” (Allergan, Inc., priority 2016, published 2019)
Like-named read-outs stand apart in the source and are kept apart here.

Tests used:
[1] = system: lipopolysaccharide (LPS)-induced ocular inflammation model; assay: LPS-induced ocular inflammation model, aqueous humor cells and protein, survival; type: in vivo; conditions: for % Efficacy, Cell % Inhibition / % Efficacy, Protein % Inhibition: aqueous humor
Description: Male Lewis rats, weighing about 250 to 270 grams, were purchased from Charles River and used for all studies. Lipopolysaccharide (LPS) was made fresh in sterile saline (1 mg/ml), kept on ice, and administered by footpad injection at a total dose of 100 μg (100 μl) per animal. Twenty-four hours later, at the time of maximal inflammation in this model, the rats were euthanized by CO2 inhalation. Aqueous humor was collected and analyzed for protein concentration and cell counts.
For the calculation of the percentage of cell inhibition, the number of cells in treatment group were divided by the average number of cells in vehicle group times 100. For the calculation of the percentage of protein inhibition, the amount protein in treatment group was divided by the average protein in the vehicle group times 100.
Aqueous humor was collected from both eyes by anterior chamber puncture, performed under an operating microscope, using a 30-gauge needle and 25 μl Hamilton syringe (Catalog number 1702). aqueous humor from both eyes was pooled and kept on ice until further analysis.
Protein determination was carried out using a standard Bradford method. Cell counting was done by using either a hemocytometer or an automated cell counter (BioRad TC10).

[2] = system: Oxazolone (OXA) dermatitis in SKH1-E hairless mice; assay: Oxazolone-induced dermatitis model, topical or oral treatment, SCORAD and resolved lesions; type: in vivo; conditions: for day of statistically significant improvement in SCORAD clinical scores: topical, vs. vehicle
Description: Female SKH1-E hairless mice (Charles River) weighing approximately 25 g at 2-3 months of age were used in the following study. For model induction, the mice were sensitized on Day −7 (minus seven) by topical application of 50 μl of 5% Oxazolone (OXA) solubilized in ethanol on the hind flank. Dermatitis was elicited by repeated topical challenges with 50 μl of 0.1% Oxazolone every other day until the end of the study.
For administration of the test compounds, the test compounds were solubilized in a 70% ethanol/30% DMSO vehicle solution and kept at 4° C. Beginning on Day 0, the test compounds were administered twice daily (AM/PM) by topical application (50 μl volume) for 12 days. Betamethasone (0.12%) was used as a positive control and dosed once daily in the AM. Test article dosing and topical challenges were separated by at least 4 hours and all compounds were masked to investigators.
For clinical assessment, the degree of dermatitis was graded on a SCORAD (scoring atopic dermatitis) based scoring system of 0-3 (with 0=no symptoms, 1=Mild, 2=Moderate, 3=Severe) prior to challenge by a masked investigator.
(§1) For tissue collection, on the day of necropsy, animals were euthanized at 2 hours post final dose via CO2 inhalation with death verified by cervical dislocation. Whole blood was collected via cardiac puncture (˜250 μl) in EDTA/K^+ treated tubes for plasma analysis of drug concentrations. A rectangular strip of skin from the left side of treatment back area was collected for hematoxylin-eosin (H&E) stain. Prior to placing tissue in 10% formalin, the skin thickness was measured using a calibrated caliper (mm). Three 8 mm tissue punches were then collected from the right side of the treatment area and stored at −80° C. for cytokine protein (LUMINEX) or gene expression assays.

PMBC TNF = conditions: data from literature; read-out: PMBC TNF Inhib. IC50; cited from earlier work
human PDE4B2 = human PDE4B2 (Homo sapiens, UniProt Q07343); assay: Phosphodiesterase assay, recombinant human PDE4B2 ([3H]cAMP hydrolysis); type: biochemical
Chain of human PDE4B2 (Q07343 1-564 isoform Q07343-2): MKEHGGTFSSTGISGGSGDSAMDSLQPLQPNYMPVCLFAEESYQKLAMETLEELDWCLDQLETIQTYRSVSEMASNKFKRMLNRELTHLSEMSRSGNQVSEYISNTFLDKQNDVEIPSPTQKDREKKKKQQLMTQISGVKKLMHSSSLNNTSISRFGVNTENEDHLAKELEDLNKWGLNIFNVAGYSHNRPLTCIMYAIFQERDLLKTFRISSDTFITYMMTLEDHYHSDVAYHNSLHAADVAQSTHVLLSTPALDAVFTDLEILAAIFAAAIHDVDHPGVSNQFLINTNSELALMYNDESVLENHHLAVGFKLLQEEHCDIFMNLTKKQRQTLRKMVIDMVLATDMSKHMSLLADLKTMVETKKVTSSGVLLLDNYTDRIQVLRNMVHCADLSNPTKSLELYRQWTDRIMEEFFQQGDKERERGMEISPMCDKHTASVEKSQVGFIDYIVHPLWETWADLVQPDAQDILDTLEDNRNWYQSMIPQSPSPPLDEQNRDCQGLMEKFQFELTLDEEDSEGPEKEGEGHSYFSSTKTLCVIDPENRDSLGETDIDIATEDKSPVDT
Description: A phosphodiesterase assay was performed using recombinant human PDE expressed in a baculoviral system.
The assay consisted of a two-step procedure. Tritium-labeled cyclic AMP was hydrolyzed to 5′-AMP by phosphodiesterase. The 5′-AMP was then further hydrolyzed to adenosine by nucleotidase in snake venom. An anion-exchange resin bound all charged nucleotides and left [^3H]adenosine as the only labeled compound to be counted by liquid scintillation.
All compounds were tested at a 10 μM starting concentration with a 1 in 3, 8 point IC50. […] The IC50 of each compound and the standard inhibitor (Rolipram) was determined. The standard inhibitor value was compared to historical assay data to ensure that it was within an acceptable range.

[3] = Plasma drug concentration after topical dosing in the dermatitis model (LC-MS/MS); type: in vivo
Description: as §1
The whole-blood samples collected in Example 2 were analyzed for drug concentrations. In particular, plasma samples were extracted by protein precipitation with acetonitrile and analyzed for drug concentrations by the bioanalytical laboratory using liquid chromatography tandem mass spectrometry (LC-MS/MS). Propranolol (200 ng/mL) was used as an internal standard for the extraction procedure. Working standards were prepared by series dilution (0.5 ng/mL) into acetonitrile from a stock solution of 10 ug/mL. All samples were analyzed using the API 5000 LC-MS/MS system in 0.1% formic acid in water.

[4] = system: pruritus, atopic dermatitis; assay: Example of treatment of pruritus / atopic dermatitis (patient case); type: in vivo, human; conditions: topical cream once a day
From the text: A person presents with a history of chronic relapsing atopic dermatitis (eczema), with severe itching, beginning. Their rash is characterized by red, itchy eruptions on cheeks and legs. Patient's parents stated that during a flare-up child is irritable at home and severe scratching disrupts sleep at night. Patient also feels very self-conscious of rash and is socially withdrawn at school during a flare-up. History of treatment have included lukewarm soaking baths and the use of over the counter emollients and creams. Topical calcineurin inhibitors were reported to exacerbate pruritus. The patient is prescribed a topical cream of the compound of Formula I with instructions to apply medication once day.

rosacea = assay: Example of treatment of rosacea (patient case); type: in vivo, human; conditions: topical one or twice a day; after about two days
From the text: A person presents with visible facial erythema and edema with telangiectases and visible papules and pustules resembling acne. […] Upon clinical examination, the patient is diagnosed with rosacea in its inflammatory phase. The patient is prescribed a topical composition comprising an effective amount of the compound of Formula I and instructed to apply the composition to the affected areas one or twice a day.

Oral bio-availability = conditions: in vivo
dry eye disease = assay: Example of treatment of dry eye disease (patient case); type: in vivo, human; conditions: eye drops once a day; after about 1 to 2 months
From the text: A person presents with a history of having gritty, itchy and burning sensations in the both eyes which was previously generally diagnose as dry eye and has been treated with artificial tear drops applied topically to the eye as needed. The patient complains that the artificial tear solutions require too many applications per day. Medical evaluation of the patient results in the identification of the patient's dry eye disease as being dry eye disease where tear production is presumed to be suppressed due to ocular inflammation associated with the dry eye disease. The patient is prescribed eye drops containing an effective amount of the compound of Formula I with instructions to apply medication once a day.

plaque psoriasis = assay: Example of treatment of plaque psoriasis (patient case); type: in vivo, human; conditions: topical up to three times a day; after 1 to 4 months
From the text: A person presents with erythematous plaques covered with thick, silvery, shiny scales on the extensor surfaces of their elbows and knees. After a clinical evaluation, the patient is diagnosed with plaque psoriasis. The patient is prescribed a pharmaceutical composition containing an effective amount of the compound of Formula I with instructions to apply the composition topically to the plaques up to three times a day.

[5] = 0.01-0.5 mg/kg subcutaneously, dose dependent
[6] = human PDE4B2, read-out: Enzymatic IC50

## CCCNC(=O)COc1c(C(=O)Cc2c(Cl)cncc2Cl)ccc(OC)c1OC
[1]; systemic dose 1.0 mg/kg
  % Survival: 100%
  % Efficacy, Cell % Inhibition: 67%
  % Efficacy, Protein % Inhibition: 29%

## N#Cc1ccc(Oc2ccc3c(c2)COB3O)cc1 [AN-2728]
[2]
  day of statistically significant improvement in SCORAD clinical scores: ≥ 9 days
PMBC TNF
  IC50: 170 nM
Human PDE4B2
  IC50: 26 nM

## CS(=O)(=O)Nc1ccc(C(=O)O[C@@H](Cc2c(Cl)c[n+]([O-])cc2Cl)c2ccc(OC(F)F)c(OCC3CC3)c2)cc1OCC1CC1 [Compound A]
PDE4 versus other PDEs
  selectivity for PDE4 versus other PDEs: greater than 50 fold
[3]; mouse, in vivo, delivered topically to the skin, 2 hours post final dose, read-out: plasma concentrations
  concentration at 2 h: < 5 ng/mL
[3]; topical 0.01%, 8 of the 10 animals
  plasma concentrations: below quantifiable limits
[2]; topical 0.01-1% w/v, compared to AN-2728
  reduction of SCORAD clinical scores earlier than benchmark AN-2728: 4 days
[2]
  day of statistically significant improvement in SCORAD clinical scores: ≤ 5 days
[2]; topically applied at 0.01%
  animals with resolved lesions: approximately 60%
[2]; topically applied at 1%
  animals with resolved lesions: approximately 90%
[4]; after approximately 3 weeks
  redness and eruptions on the skin: significant reduction
[4]; within the first week
  scratching: noticeable reduction in scratching
[1]; [5]
  percentage of cells in the aqueous humor: significantly reduced
  percentage of protein in the aqueous humor: significantly reduced
[1]; systemic dose 0.1 mg/kg
  % Survival: 100%
  % Efficacy, Cell % Inhibition: 95%
  % Efficacy, Protein % Inhibition: 67%
rosacea
  rosacea affected areas: noticeable clearing of the affected areas
PMBC TNF
  IC50: 0.03 nM
Oral bio-availability
  oral bio-availability: does not show any oral bio-availability
Human PDE4B2; [6]
  IC50: 0.04 nM
Dry eye disease
  gritty, itchy and burning sensations: significant reduction
  tear production: enough of an increase in tear production that the artificial tear drops are needed much less frequently
Plaque psoriasis
  psoriatic plaques: almost completely disappeared

## COc1cccc(Nc2c(C(N)=O)cnc3c(C)cc(S(=O)(=O)c4cccc(C(=O)N(C)C)c4)cc23)c1 [GSK-256066]
[1]; rat, in vivo
  safety in the ocular inflammation model: resulted in death of the animals
[1]; systemic dose 1.0 mg/kg
  % Survival: 0%
PMBC TNF
  IC50: 0.01 nM
Human PDE4B2; [6]
  IC50: 0.007 nM

## CCOc1cc([C@@H](CS(C)(=O)=O)N2C(=O)c3cccc(NC(C)=O)c3C2=O)ccc1OC [apremilast]
[2]; topically applied at 1%
  animals with resolved lesions: approximately 40%
PMBC TNF
  IC50: 110 nM

## O=C(Nc1c(Cl)cncc1Cl)c1ccc(OC(F)F)c(OCC2CC2)c1 [drawing 21]
[1]; systemic dose 0.3 mg/kg
  % Survival: 100%
  % Efficacy, Cell % Inhibition: 97%
  % Efficacy, Protein % Inhibition: 77%

## CCOc1cc([C@@H](CS(C)(=O)=O)N2C(=O)c3cccc(NC(C)=O)c3C2=O)ccc1OC [drawing 22]
[1]; systemic dose 10.0 mg/kg
  % Survival: 100%
  % Efficacy, Cell % Inhibition: 94%
  % Efficacy, Protein % Inhibition: 58%

## N#Cc1ccc(Oc2ccc3c(c2)COB3O)cc1 [drawing 23]
[1]; systemic dose 1.0 mg/kg
  % Survival: 100%
  % Efficacy, Cell % Inhibition: 51%
  % Efficacy, Protein % Inhibition: 13%

## O=C(Nc1c(Cl)cncc1Cl)c1ccc(OC(F)F)c(OCC2CC2)c1 [roflumilast]
PMBC TNF
  IC50: 1.8 nM
